# Results taken from patent US20130303509A1, “NAMPT INHIBITORS” (AbbVie Inc., priority 2012, published 2013).
# Test system: PC3 cells
# Test: NAMPT Cell Proliferation Assay
# Type: cell-based
# Conditions: Homo sapiens, PC-3, 120 h, 5 days incubation, cell viability by Cell Titer Glo
# Procedure, shortened: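 Seeded at 500 cells/well in RPMI with 10% heat-inactivated FBS and left to attach overnight at 37° C, 5% CO2. Compounds were added as 10-fold dilutions […] for 5 days, then viability was read by CellTiter-Glo. IC50s came from sigmoidal fits of percent inhibition.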
row,IC50 [nM],Structure (SMILES)
1,1770,"Cc1ccc(N2CC[C@H](C(=O)Nc3ccc(OC4CCN(C(=O)C(C)(C)C)CC4)cc3)C2)nn1 [Example 838, (3S)—N-(4-{[1-(2,2-dimethylpropanoyl)piperidin-4-yl]oxy}phenyl)-1-(6-methylpyridazin-3-yl)pyrrolidine-3-carboxamide]"
2,2000,"Cc1ccc(N2CC[C@H](C(=O)Nc3ccc(OC4CCN(C(=O)C5CCCCC5)CC4)cc3)C2)nn1 [Example 839, (3S)—N-(4-{[1-(cyclohexylcarbonyl)piperidin-4-yl]oxy}-phenyl)-1-(6-methylpyridazin-3-yl)pyrrolidine-3-carboxamide]"
3,7.24,"COCCn1nc(CC(C)C)cc1-c1ccc(NC(=O)C2CN(c3cccnn3)C2)cc1 [Example 846, N-{4-[1-(2-methoxyethyl)-3-(2-methylpropyl)-1H-pyrazol-5-yl]phenyl}-1-(pyridazin-3-yl)azetidine-3-carboxamide]"
4,115,"CC(C)(C)C(=O)N1CCC(c2ccc(C(=O)NC3CN(c4cccnn4)C3)s2)CC1 [Example 847, 5-[1-(2,2-dimethylpropanoyl)piperidin-4-yl]-N-[1-(pyridazin-3-yl)azetidin-3-yl]thiophene-2-carboxamide]"
5,609,"CC1(C(=O)N2CCC(c3ccc(C(=O)NC4CN(c5cccnn5)C4)s3)CC2)CC1 [Example 848, 5-{1-[(1-methylcyclopropyl)carbonyl]piperidin-4-yl}-N-[1-(pyridazin-3-yl)azetidin-3-yl]thiophene-2-carboxamide]"
6,685,"O=C(NC1CN(c2cccnn2)C1)c1ccc(C2CCN(C(=O)CC(F)(F)F)CC2)s1 [Example 849, N-[1-(pyridazin-3-yl)azetidin-3-yl]-5-[1-(3,3,3-trifluoropropanoyl)piperidin-4-yl]thiophene-2-carboxamide]"
7,70.5,"CCC(C)(C)C(=O)N1CCC(c2ccc(C(=O)NC3CN(c4cccnn4)C3)s2)CC1 [Example 850, 5-[1-(2,2-dimethylbutanoyl)piperidin-4-yl]-N-[1-(pyridazin-3-yl)azetidin-3-yl]thiophene-2-carboxamide]"

row,Structure (SMILES),IC50 [nM]
1,"CC(C)C(=O)N1C2CCC1CC(c1ccc(NC(=O)C3CN(c4cccnn4)C3)cc1)C2 (stereo not shown) [Example 840, N-{4-[8-(2-methylpropanoyl)-8-azabicyclo[3.2.1]oct-3-yl]phenyl}-1-(pyridazin-3-yl)azetidine-3-carboxamide]",2.8
2,"O=C(Nc1ccc(C2CC3CCC(C2)N3C(=O)CCC(F)(F)F)cc1)C1CN(c2cccnn2)C1 (stereo not shown) [Example 841, 1-(pyridazin-3-yl)-N-{4-[8-(4,4,4-trifluorobutanoyl)-8-azabicyclo[3.2.1]oct-3-yl]phenyl}azetidine-3-carboxamide]",3.55
3,"O=C(Nc1ccc(C2CC3CCC(C2)N3C(=O)c2ccccc2)cc1)C1CN(c2cccnn2)C1 (stereo not shown) [Example 842, N-[4-(8-benzoyl-8-azabicyclo[3.2.1]oct-3-yl)phenyl]-1-(pyridazin-3-yl)azetidine-3-carboxamide]",0.665
4,"O=C(Nc1ccc(C2CC3CCC(C2)N3C(=O)c2ccccc2F)cc1)C1CN(c2cccnn2)C1 (stereo not shown) [Example 843, N-{4-[8-(2-fluorobenzoyl)-8-azabicyclo[3.2.1]oct-3-yl]phenyl}-1-(pyridazin-3-yl)azetidine-3-carboxamide]",0.61
5,"CC(C)(C)C(=O)N1C2CCC1CC(c1ccc(NC(=O)C3CN(c4cccnn4)C3)cc1)C2 (stereo not shown) [Example 844, N-{4-[8-(2,2-dimethylpropanoyl)-8-azabicyclo[3.2.1]oct-3-yl]phenyl}-1-(pyridazin-3-yl)azetidine-3-carboxamide]",2.52
6,"CC1(C(=O)N2C3CCC2CC(c2ccc(NC(=O)C4CN(c5cccnn5)C4)cc2)C3)CC1 (stereo not shown) [Example 845, N-(4-{8-[(1-methylcyclopropyl)carbonyl]-8-azabicyclo[3.2.1]oct-3-yl}phenyl)-1-(pyridazin-3-yl)azetidine-3-carboxamide]",2.09
